The record followed here is PubChem BioAssay AID463174 (Southern Research Specialized Biocontainment Screening …, 2010).

Activity calls are given as the source filed them. How the calls were made is not given here.

Assay [1] in a line: late-stage follow-up, counter-screen for PhoP regulon inhibitor project, purified and synthesized compounds, set 5 (AID 463174). As to conditions: S. Typhi promoter-GFP counter-screen, fluorescence, 4 h; at 150 µM (top of the series). In general terms: Counterscreens check selectivity or assay interference.
The subject of assay [2] is S. Typhi promoter-GFP counter-screen, fluorescence, 4 h. Described as above.

In the case of `Clc1ccc(C2Sc3ccccc3N=C3c4ccccc4CC32)cc1` (stereo unspecified), the inhibition (in general, the relative decrease from the control value, in per cent) in assay [1] is -48.2% (inactive).
Turning to `O=C1C2=C(Nc3ccccc3SC2c2cccnc2)c2ccccc21` (stereo unspecified), in assay [1], the inhibition is -32.9% (inactive).
As to `O=C1C2=C(Nc3ccccc3SC2c2ccc(Cl)cc2)c2ccccc21` (stereo unspecified), the IC50 – broadly, the midpoint of a concentration-inhibition curve – in assay [2] was 89.6 µM.
For the compound `COc1cccc(NC(=O)N2CCCN(Cc3ccccc3F)C2)c1`, the inhibition in assay [1] was -3.56% (inactive).
Still for that read-out and setting: then `O=C1C2=C(Nc3ccccc3SC2c2cccc(Br)c2)c2ccccc21` (stereo unspecified), with -12.6% (inactive); and `Cc1ccc(C2Sc3ccccc3N=C3c4ccccc4CC32)cc1` (stereo unspecified), with -45.3% (inactive).
